# From patent US20100029683A1, “Methods for regulating cell mitosis by inhibiting serine/threonine phosphateses” (priority 2008, published 2010)
# Key:
# U373 = test: Inhibition of U373 glioblastoma cells after 7 days in culture, alone and in combination; format: cell-based, human; settings: Compound 100 2.5 μM, cisplatin 0.1 μM, doxorubicin 0.01 μM, taxol 0.3 nM, each alone
# Procedure: Cells were exposed to vehicle alone (control); Compound 100 at 2.5 uM; cisplatin at 0.1 uM; doxorubicin at 0.01 uM; or taxol at 0.3 nM alone or to the combination of Compound 100 plus each of the standard agents at the same concentrations. […] The expected percent inhibition at 7 days is the product of the inhibition by each agent alone.
# Cells were exposed to vehicle alone (control); compound 100 at 2.5 μM, cisplatin at 0.1 μM; doxorubicin at 0.01 μM; or taxol at 0.3 nM alone or to the combination of compound 100 plus each of the standard agents at the same concentrations. […] The expected percent inhibition from a combination of drugs is calculated by multiplying the actual percent inhibition by each drug alone and comparing that product to the actual percent inhibition caused by the combination of the two drugs (Valeriote, 1975). The expected percent inhibition at 7 days is the product of the inhibition by each agent alone.
# U87MG = test: Western blots of pAkt, p53 and MDM2 in U87MG cells after 24 hours; format: cell-based, human; settings: compound 102 2.5 uM, TMZ 25 uM, DOX 2 uM
# Procedure: (§1) 5×10^6 U87MG cells were inoculated s.c. into each flank of 20 SCID mice. When the xenografts were 0.5±0.1 cm (day 0), 5 animals each received i.p. vehicle alone days 1-12 (50% DMSO/H2O); compound 102 alone at 1.5 mg/kg days 1-3,5-7, & 9-11; TMZ alone at 80 mg/kg days 4, 8, 12; or both drugs at the same doses and schedules. If xenografts reached 1800 mm^3, animals were sacrificed. […] B, Survival curve combining the data from the study shown in FIG. 12A, with a second identical study involving a total of 10 animals with two xenografts each. Disease-free survival was defined as no recurrence of either xenografts. […] As in 12A, except that xenografts of SH-SY5Y cells were implanted in one flank only and animals were treated with one additional cycle of drugs, i.e., compound 102 on days 13-15, TMZ, on day 16, and compound 102 plus TMZ on the same schedules. […] E, Western blots of U87 cells in culture 24 hours after exposure to compound 102 at 2.5 uM, TMZ at 25 uM or DOX at 2 uM, and compound 102 plus TMZ or DOX. F, Western blots of U373 cells 24 hours after exposure to compound 102 at 2.5 uM, doxorubicin at 2 uM, and both drugs. G, Western blots of U373 cells 24 hours after exposure to TMZ at 25 uM, okadaic acid at 2 nM, and both drugs.
# The effects of compound 102, TMZ, doxorubicin (DOX), a widely used anti-cancer drug that disrupts DNA replication, compound 102 plus TMZ, and compound 102 plus DOX on the amount of pAkt, p53 and MDM2 in U87MG, a cell line with wild-type p53, and in U373, a cell line with mutant p53 (Short et al, 2007) were assessed by Western blots.
# U373 cells [1] = test: Cell cycle distribution of U373 cells by FACS after 48 hours; format: cell-based, human; settings: U373, 48 hours
# Procedure: (§2) Cells in unsynchronized logarithmic growth were exposed to vehicle or drug and adherent cells and cells in the media were collected. Harvested cells were fixed with 70% cold ethanol for 20 min at −20 degrees, washed with PBS, and stained with 10 ug/ml of PI and 1 ug/ml RNAse in TBS for 30 minutes and analyzed by FACS. A, Flow cytometry profiles of U87 cells after exposures to DMSO only, compound 102 only, 5 uM; TMZ only, 25 uM; compound 102 with TMZ combination, doxorubicin only, 2.0 uM and compound 102 with doxorubicin combination. B, Flow cytometry profiles of U373 cells.
# (§3) We analyzed cell cycle patterns of U87MG and U373 cells 48 hours after exposure to TMZ or DOX alone and in combination with compound 102.
# PP2A [2] = target: PP2A (Homo sapiens, UniProt P67775); test: Inhibition of purified PP2A (Ser/Thr Phosphatase Assay Kit 1); format: biochemical
# PP2A (Homo sapiens, UniProt P67775), sequence (P67775 whole entry): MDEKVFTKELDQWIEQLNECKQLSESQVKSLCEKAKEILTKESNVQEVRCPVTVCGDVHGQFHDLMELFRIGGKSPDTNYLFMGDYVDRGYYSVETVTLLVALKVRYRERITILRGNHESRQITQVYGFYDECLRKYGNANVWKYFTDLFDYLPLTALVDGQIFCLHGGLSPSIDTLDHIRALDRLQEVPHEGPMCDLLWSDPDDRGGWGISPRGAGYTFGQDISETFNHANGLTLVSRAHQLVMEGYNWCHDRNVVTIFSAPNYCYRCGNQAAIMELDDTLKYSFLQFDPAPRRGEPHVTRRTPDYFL
# Source text: (§4) Inhibition of PP2A and PP1 activity by compound 102 on purified PP1 and PP2A (mean and s.d.; n=3) (Ser/Thr Phosphatase Assay Kit 1, Millipore, Billerica, Mass.)
# PP1 = PP1 (Homo sapiens, UniProt P62136); test: Inhibition of purified PP1 (Ser/Thr Phosphatase Assay Kit 1); format: biochemical
# PP1, sequence (P62136 whole entry): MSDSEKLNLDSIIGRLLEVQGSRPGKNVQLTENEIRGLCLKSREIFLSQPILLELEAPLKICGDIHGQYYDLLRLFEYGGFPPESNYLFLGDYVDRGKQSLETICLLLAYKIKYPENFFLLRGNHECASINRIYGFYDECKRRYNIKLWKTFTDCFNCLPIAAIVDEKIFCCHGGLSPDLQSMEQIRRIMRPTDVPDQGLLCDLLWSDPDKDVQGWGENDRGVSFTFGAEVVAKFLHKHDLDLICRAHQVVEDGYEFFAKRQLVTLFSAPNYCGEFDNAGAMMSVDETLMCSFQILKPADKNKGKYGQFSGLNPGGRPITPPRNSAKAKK
# Source text: as §4
# U87 cells [3] = test: U87 cell growth in vitro, viable cell count; format: cell-based, human; settings: U87 cells (FIG. 6), read-out: IC50, inhibition of GBM cell growth
# Procedure: FIG. 6: Effect of compound 102 on U87 cells in vitro at 1 uM; 2 uM; 5 uM; and 10 uM.
# Viable cells were counted (mean and s.d.; n=3; Coulter particle counter).
# PP2A [4] = test: PP2A activity in U87 s.c. xenografts and normal brain of SCID mice after i.p. injection; format: in vivo; settings: single dose 1.5 mg/kg i.p.
# Procedure: PP2A activity in U87 s.c. xenografts (blue) and in normal brain tissue (yellow) of SCID mice at different times after i.p. injection of 1.5 mg/kg compound 102 (one mouse per point; each lysate was measured in triplicate: mean and s.d.)
# U87MG cells [5] = test: Cellular and molecular changes in U87MG cells (immunofluorescence, Western blots); format: cell-based, human; settings: 2.5 uM
# Procedure: FIG. 11A-G: Cellular and molecular changes in U87 cells induced by compound 102 at 2.5 uM after 24 hour exposure (A-D, F, G) and after 3 hours ([…]).
# A, Nuclear changes in U87 cells in unsynchronized logarithmic growth (upper panel, green immunofluorescence [IFS] GFP labeled-actin α and lower panel, blue DAPI staining). Numerous irregular nuclei with clumped chromatin in compound 102 treated cells are indicated by arrows. B, Disordered microtubules (green IFS tubulin-α and red IFS pPlk-1-Tre 210) and irregular clumped chromatin (blue DAPI) C, Western blots of U87 lysates: pAkt-1, total Akt-1, and β-actin. D, Western blots of U87 lysates: TCTP, pPlk (Tre-210), total Plk, and β-actin. E, IFS of TCTP in U87 cells, F, Western blots p53 (ser-15), pMDM2 (ser-166), and β-actin and G, IFS of p53 (ser-15).
# TCTP is an abundant, highly conserved, multifunctional protein that binds to and stabilizes microtubules before and after mitosis and also exerts potent anti-apoptotic activity (Bommer and Thiele, 2004; Yarm, 2002; Susini et al, 2008) (FIG. 11E).
# U87MG xenografts = test: U87MG s.c. xenografts in SCID mice, compound 102 with TMZ; format: in vivo
# Procedure: as §1
# To determine the impact of altering DNA-damage defense mechanisms by inhibiting PP2A on the efficacy of cytotoxic chemotherapy, the effects of compound 102 combined with TMZ, a non-specific DNA-methylating drug, routinely used for the palliative treatment of GBM patients (Prados et al, 2008), were studied. SCID mice bearing s.c. xenografts of either the GBM line U87MG or the neuroblastoma line SH-SY5Y were treated with vehicle alone, compound 102 alone, TMZ alone, or both drugs at the same doses and schedules as when given alone.
# SH-SY5Y xenografts = test: SH-SY5Y neuroblastoma s.c. xenografts in SCID mice, compound 102 with TMZ; format: in vivo; settings: as U87MG study plus one additional cycle of drugs; followed 7 weeks
# Procedure: 5×10^6 U87MG cells were inoculated s.c. into each flank of 20 SCID mice. When the xenografts were 0.5±0.1 cm (day 0), 5 animals each received i.p. vehicle alone days 1-12 (50% DMSO/H2O); compound 102 alone at 1.5 mg/kg days 1-3,5-7, & 9-11; TMZ alone at 80 mg/kg days 4, 8, 12; or both drugs at the same doses and schedules. If xenografts reached 1800 mm^3, animals were sacrificed. […] B, Survival curve combining the data from the study shown in FIG. 12A, with a second identical study involving a total of 10 animals with two xenografts each. Disease-free survival was defined as no recurrence of either xenografts. […] As in 12A, except that xenografts of SH-SY5Y cells were implanted in one flank only and animals were treated with one additional cycle of drugs, i.e., compound 102 on days 13-15, TMZ, on day 16, and compound 102 plus TMZ on the same schedules. […] E, Western blots of U87 cells in culture 24 hours after exposure to compound 102 at 2.5 uM, TMZ at 25 uM or DOX at 2 uM, and compound 102 plus TMZ or DOX. F, Western blots of U373 cells 24 hours after exposure to compound 102 at 2.5 uM, doxorubicin at 2 uM, and both drugs. G, Western blots of U373 cells 24 hours after exposure to TMZ at 25 uM, okadaic acid at 2 nM, and both drugs. […]
# NB xenografts = test: Histologic examination of xenografts 24 hours after a single i.p. injection; format: in vivo, SCID mice; settings: 24 hours after single i.p. injection
# [6] = system: DAOY medulloblastoma cells; test: DAOY medulloblastoma s.c. xenografts in SCID mice; format: in vivo; settings: treatment from day 6, measured to day 23
# Procedure: DAOY medulloblastoma cells were implanted subcutaneously into the flanks of SCID mice. On day 6, mice were divided into 3 groups, one group receiving Compound 100, one group receiving Compound 102, and one group receiving vehicle alone. The subcutaneous tumor masses were measured on day 6, day 13, day 18, and on day 23 when all animals were sacrificed. […] In this model DAOY cells, when untreated, reached their maximum growth about 2 weeks after implantation with slow regression thereafterwards.
# U87 cells [7] = test: Immunofluorescence staining of p53; format: cell-based, human; settings: 24 hour exposure, compound 102 2.5 uM, TMZ 25 uM
# U87MG cells [8] = test: Cell cycle distribution of U87MG cells by FACS after 48 hours; format: cell-based, human
# Procedure: as §2, §3
# [9] = Solubility character of lead compounds; format: physicochemical
# U373 cells [10] = test: Western blots of pAkt-1, p53 and MDM2 in U373 cells after 24 hours; format: cell-based, human; settings: U373, 2 nM
# Procedure: as §1
smiles,measurement,setting,value
CC(=O)O[C@H]1C(=O)[C@@]2(C)[C@H]([C@H](OC(=O)c3ccccc3)[C@]3(O)C[C@H](OC(=O)[C@H](O)[C@@H](NC(=O)c4ccccc4)c4ccccc4)C(C)=C1C3(C)C)[C@]1(OC(C)=O)CO[C@@H]1C[C@@H]2O [Taxol],"inhibition at 7 days, agent alone",U373,114%
"COc1cccc2c1C(=O)c1c(O)c3c(c(O)c1C2=O)C[C@@](O)(C(=O)CO)C[C@@H]3O[C@H]1C[C@H](N)[C@H](O)[C@H](C)O1 [DOX, doxorubicin]","inhibition at 7 days, agent alone",U373,75.7%
same,MDM2 on Western blot,U87MG,little effect on MDM2
same,p53 on Western blot,U87MG,increased p53
same,pAkt-1 on Western blot,U87MG,decreased pAkt-1
same,G1 phase cells,U373 cells [1],reduced G1 and G2/M
same,G2/M phase cells,U373 cells [1],reduced G1 and G2/M
same,S phase cells,U373 cells [1],greatly increased S
CC(C)(C)OC(=O)N1CCN(C(=O)C2C(C(=O)O)[C@H]3CC[C@@H]2O3)CC1 (stereo partly shown) [Compound 102],IC50,PP2A [2],~0.4 µM
same,IC50,PP1,~80 µM
same,IC50,U87 cells [3],~4 µM
same,PP2A activity in normal brain tissue,PP2A [4],inhibits PP2A activity
same,PP2A activity in s.c. xenografts of U87 MG,PP2A [4],inhibits PP2A activity
same,p53 abundance,U87MG cells [5],decreased the abundance of p53
same,phosphorylated MDM2,U87MG cells [5],increased phosphorylated MDM2
same,TCTP abundance,U87MG cells [5]; 24 hour exposure,marked decrease in translationally controlled tumor protein
same,microtubule and mitotic morphology (mitotic catastrophe),U87MG cells [5]; 24 hour exposure,appearance of disordered microtubules and abnormal mitotic figures
same,phosphorylated Akt-1,U87MG cells [5]; 24 hour exposure,increased phosphorylated Akt-1
same,phosphorylated Plk-1,U87MG cells [5]; 24 hour exposure,increased phosphorylated Plk-1
same,time of sacrifice (xenografts reached 1800 mm^3),"U87MG xenografts; U87 xenografts, for the combination only the 3 mice with recurrence",4-5 week
same,growth of GBM (U87MG) xenografts,"U87MG xenografts; compound 102 1.5 mg/kg i.p. days 1-3, 5-7, 9-11, TMZ 80 mg/kg days 4, 8, 12",minimally delayed growth
same,GBM xenografts: animals with complete regression without recurrence,"U87MG xenografts; compound 102 combined with temozolomide, greater than 28 weeks",50%
same,growth of NB (SH-SY5Y) xenografts,SH-SY5Y xenografts,completely suppressed growth for 2 weeks
same,cells with decreased cell size / small pyknotic nuclei,NB xenografts,~50%
same,DAOY s.c. tumor mass,[6],marked regression of the tumor by day 23
same,MDM2 on Western blot,U87MG,increased both pAkt-1 and MDM2
same,p53 on Western blot,U87MG,eliminated p53
same,pAkt-1 on Western blot,U87MG,increased both pAkt-1 and MDM2
same,intracellular levels of p53 by immunofluorescence,U87 cells [7],reduction of intracellular levels of p53
same,G1 phase cells,U87MG cells [8],decreased G1
same,G2/M phase cells,U87MG cells [8],prominently increased G2/M
same,S phase cells,U87MG cells [8],modestly increased S
same,cell cycle profile,U373 cells [1],no effect on this profile
same,solubility character,[9],lipid soluble
"C=C1[C@@H](O)[C@@H]2O[C@]3(CC[C@H](/C=C/[C@@H](C)[C@@H]4CC(C)=C[C@@]5(O[C@H](C[C@@](C)(O)C(=O)O)CC[C@H]5O)O4)O3)CC[C@H]2O[C@@H]1[C@@H](O)C[C@H](C)[C@H]1O[C@@]2(CCCCO2)CC[C@H]1C [Okadaic acid, okadaic acid]",effects on pAkt-1 and mutant p53,U373 cells [10],mimicked the effects of compound 102 on pAkt-1 and on mutant p53
N.N.[Cl][Pt][Cl] [cisplatin],"inhibition at 7 days, agent alone",U373,93.5%
"Cn1nnc2c(C(N)=O)ncn2c1=O [TMZ, temozolomide, reference compound]",cells with cytoplasmic swelling and vacuolization,NB xenografts,~50%
